# Reference: ChEMBL document CHEMBL3880386, “Combination comprising the MEK inhibitor N-{3-[3-cyclopropyl-5-(2-fluoro-4-iodo- phenylamino)-6,8-dimethyl-2,4,7-trioxo-3,4,6,7-tetrahydro-2H-pyrido[4,3-d]pyrimidin-1-yl]phenyl}acetamide and the Akt inhibitor N-{(1S)-2-amino-1-[(3-fluorophenyl)methyl]ethyl}-5-chloro-4-(4-chloro-1- …” (2014)
# Columns and labels:
# [1] = Growth inhibition of human COLO205 cells at 1:10 molar ratio of compound in presence of N-{3-[3-cyclopropyl-5-(2-fluoro-4-iodo-phenylamino)-6,8-dimethyl- 2,4,7-trioxo-3,4,6,7-tetrahydro-2H-pyrido[4,3-d]pyrimidin-1-yl]phenyl}acetamide incubated for 72 hrs by Cell-titer-Glo reagent based assay; type: functional; settings: COLO 205, 72 h
# [2] = Growth inhibition of human Calu3 cells at 1:10 molar ratio of compound in presence of N-{3-[3-cyclopropyl-5-(2-fluoro-4-iodo-phenylamino)-6,8-dimethyl- 2,4,7-trioxo-3,4,6,7-tetrahydro-2H-pyrido[4,3-d]pyrimidin-1-yl]phenyl}acetamide incubated for 72 hrs by Cell-titer-Glo reagent based assay; type: functional; settings: Calu-3, 72 h
# [3] = Growth inhibition of human HT-29 cells at 1:10 molar ratio of compound in presence of N-{3-[3-cyclopropyl-5-(2-fluoro-4-iodo-phenylamino)-6,8-dimethyl- 2,4,7-trioxo-3,4,6,7-tetrahydro-2H-pyrido[4,3-d]pyrimidin-1-yl]phenyl}acetamide incubated for 72 hrs by Cell-titer-Glo reagent based assay; type: functional; settings: HT-29, 72 h
# [4] = Growth inhibition of human RKO cells at 1:10 molar ratio of compound in presence of N-{3-[3-cyclopropyl-5-(2-fluoro-4-iodo-phenylamino)-6,8-dimethyl- 2,4,7-trioxo-3,4,6,7-tetrahydro-2H-pyrido[4,3-d]pyrimidin-1-yl]phenyl}acetamide incubated for 72 hrs by Cell-titer-Glo reagent based assay; type: functional
# [5] = Growth inhibition of human A427 cells at 1:10 molar ratio of compound in presence of N-{3-[3-cyclopropyl-5-(2-fluoro-4-iodo-phenylamino)-6,8-dimethyl- 2,4,7-trioxo-3,4,6,7-tetrahydro-2H-pyrido[4,3-d]pyrimidin-1-yl]phenyl}acetamide incubated for 72 hrs by Cell-titer-Glo reagent based assay; type: functional; settings: A-427, 72 h
# [6] = Growth inhibition of human NCI-H1792 cells at 1:10 molar ratio of compound in presence of N-{3-[3-cyclopropyl-5-(2-fluoro-4-iodo-phenylamino)-6,8-dimethyl- 2,4,7-trioxo-3,4,6,7-tetrahydro-2H-pyrido[4,3-d]pyrimidin-1-yl]phenyl}acetamide incubated for 72 hrs by Cell-titer-Glo reagent based assay; type: functional; settings: NCI-H1792, 72 h
# [7] = Growth inhibition of human NCI-H727 cells at 1:10 molar ratio of compound in presence of N-{3-[3-cyclopropyl-5-(2-fluoro-4-iodo-phenylamino)-6,8-dimethyl- 2,4,7-trioxo-3,4,6,7-tetrahydro-2H-pyrido[4,3-d]pyrimidin-1-yl]phenyl}acetamide incubated for 72 hrs by Cell-titer-Glo reagent based assay; type: functional; settings: NCI-H727, 72 h
# [8] = Growth inhibition of human HCC827 cells at 1:10 molar ratio of compound in presence of N-{(1S)-2-amino-1-[(3-fluorophenyl)methyl]ethyl}-5-chloro-4-(4-chloro-1-methyl-1H-pyrazol-5-yl)-2-thiophenecar- boxamide incubated for 72 hrs by Cell-titer-Glo reagent based assay; type: functional; settings: HCC827, 72 h
# [9] = Growth inhibition of human COLO205 cells at 1:10 molar ratio of compound in presence of N-{(1S)-2-amino-1-[(3-fluorophenyl)methyl]ethyl}-5-chloro-4-(4-chloro-1-methyl-1H-pyrazol-5-yl)-2-thiophenecar- boxamide incubated for 72 hrs by Cell-titer-Glo reagent based assay; type: functional; settings: COLO 205, 72 h
# [10] = Growth inhibition of human DLD1 cells at 1:10 molar ratio of compound in presence of N-{(1S)-2-amino-1-[(3-fluorophenyl)methyl]ethyl}-5-chloro-4-(4-chloro-1-methyl-1H-pyrazol-5-yl)-2-thiophenecar- boxamide incubated for 72 hrs by Cell-titer-Glo reagent based assay; type: functional; settings: DLD-1, 72 h
# [11] = Growth inhibition of human T84 cells at 1:10 molar ratio of compound in presence of N-{(1S)-2-amino-1-[(3-fluorophenyl)methyl]ethyl}-5-chloro-4-(4-chloro-1-methyl-1H-pyrazol-5-yl)-2-thiophenecar- boxamide incubated for 72 hrs by Cell-titer-Glo reagent based assay; type: functional; settings: T84, 72 h
# [12] = Growth inhibition of human EFM19 cells at 1:10 molar ratio of compound in presence of N-{(1S)-2-amino-1-[(3-fluorophenyl)methyl]ethyl}-5-chloro-4-(4-chloro-1-methyl-1H-pyrazol-5-yl)-2-thiophenecar- boxamide incubated for 72 hrs by Cell-titer-Glo reagent based assay; type: functional; settings: EFM-19, 72 h
# [13] = Growth inhibition of human MV522 cells at 1:10 molar ratio of compound in presence of N-{(1S)-2-amino-1-[(3-fluorophenyl)methyl]ethyl}-5-chloro-4-(4-chloro-1-methyl-1H-pyrazol-5-yl)-2-thiophenecar- boxamide incubated for 72 hrs by Cell-titer-Glo reagent based assay; type: functional; settings: MV522, 72 h
# [14] = (§1) Growth inhibition of human COLO205 cells assessed combination index at 1:10 molar ratio of compound in presence of N-{(1S)-2-amino-1-[(3-fluorophenyl)methyl]ethyl}-5-chloro-4-(4-chloro-1-methyl-1H-pyrazol-5-yl)-2-thiophenecar- boxamide incubated for 72 hrs by Cell-titer-Glo reagent based assay; type: functional, COLO 205
# [15] = Growth inhibition of human COR-L23 cells assessed combination index at 1:10 molar ratio of compound in presence of N-{(1S)-2-amino-1-[(3-fluorophenyl)methyl]ethyl}-5-chloro-4-(4-chloro-1-methyl-1H-pyrazol-5-yl)-2-thiophenecar- boxamide incubated for 72 hrs by Cell-titer-Glo reagent based assay; type: functional
# [16] = Growth inhibition of human NCI-H1155 cells at 1:10 molar ratio of compound in presence of N-{(1S)-2-amino-1-[(3-fluorophenyl)methyl]ethyl}-5-chloro-4-(4-chloro-1-methyl-1H-pyrazol-5-yl)-2-thiophenecar- boxamide incubated for 72 hrs by Cell-titer-Glo reagent based assay; type: functional; settings: NCI-H1155, 72 h
# [17] = Growth inhibition of human SW1573 cells at 1:10 molar ratio of compound in presence of N-{(1S)-2-amino-1-[(3-fluorophenyl)methyl]ethyl}-5-chloro-4-(4-chloro-1-methyl-1H-pyrazol-5-yl)-2-thiophenecar- boxamide incubated for 72 hrs by Cell-titer-Glo reagent based assay; type: functional; settings: SW1573, 72 h
# [18] = Growth inhibition of human NCI-H727 cells at 1:10 molar ratio of compound in presence of N-{(1S)-2-amino-1-[(3-fluorophenyl)methyl]ethyl}-5-chloro-4-(4-chloro-1-methyl-1H-pyrazol-5-yl)-2-thiophenecar- boxamide incubated for 72 hrs by Cell-titer-Glo reagent based assay; type: functional; settings: NCI-H727, 72 h
# [19] = Growth inhibition of human HCT8 cells assessed combination index at 1:10 molar ratio of compound in presence of N-{(1S)-2-amino-1-[(3-fluorophenyl)methyl]ethyl}-5-chloro-4-(4-chloro-1-methyl-1H-pyrazol-5-yl)-2-thiophenecar- boxamide incubated for 72 hrs by Cell-titer-Glo reagent based assay; type: functional, HCT-8
# [20] = Growth inhibition of human SW1463 cells at 1:10 molar ratio of compound in presence of N-{(1S)-2-amino-1-[(3-fluorophenyl)methyl]ethyl}-5-chloro-4-(4-chloro-1-methyl-1H-pyrazol-5-yl)-2-thiophenecar- boxamide incubated for 72 hrs by Cell-titer-Glo reagent based assay; type: functional; settings: SW1463, 72 h
# [21] = as §1, with “MDA-MB-175-VII” for “COLO205”; type: functional
smiles,measurement,setting,value
Cn1ncc(Cl)c1-c1cc(C(=O)N[C@H](CN)Cc2cccc(F)c2)sc1Cl [AFURESERTIB],IC50,[1],9 nM
same,IC50,[2],392 nM
same,IC50,[3],15 nM
same,IC50,[4],54 nM
same,IC50,[5],103 nM
same,IC50,[6],374 nM
same,IC50,[7],19 nM
CC(=O)Nc1cccc(-n2c(=O)n(C3CC3)c(=O)c3c(Nc4ccc(I)cc4F)n(C)c(=O)c(C)c32)c1 [TRAMETINIB],IC50,[8],40 nM
same,IC50,[9],1 nM
same,IC50,[10],93 nM
same,IC50,[11],30 nM
same,IC50,[12],30 nM
same,IC50,[13],1 nM
same,CI,[14],0.88
same,CI,[15],0.17
same,IC50,[16],10 nM
same,IC50,[17],38 nM
same,IC50,[18],2 nM
same,CI,[19],0.39
same,IC50,[20],4 nM
same,CI,[21],0.39
